From patent publication EP1288203A1, “Cyclic nitrones and pharmaceutical compositions containing them” (Aventis Pharmaceuticals Inc., priority 1995, dated 1997)
Where two headings read alike, the source gives them in different places.

Legend:
[1] = tested on: cerebellar granule cells; experiment: Protection of cerebellar granule cells against Fe2+-induced oxidative damage; format: cell-based, rats; conditions: Rattus norvegicus, 100 µM ferrous chloride
Description: The cyclic nitrones were tested for their ability to protect primary cultures of cerebellar granule cells against oxidative injury induced by treatment with Fe^2+. Cerebellar granule cell cultures were prepared from 8 day old rats as previously described. Levi, G., Aloisi, F., Ciotti, M.T., Thangnipon, W., Kingsbury, A., and Balazs, R. (1989) In: A Dissection and Tissue Culture Manual of the Nervous System (Shahar, A., de Vellis, J., Vernadakis, A., and Haber, B., eds.) Alan R. Liss, Inc. New York, NY, pp. 211-214. Briefly, 8-10 cerebella were removed and placed in a Crebs-Ringer bicarbonate medium supplemented with BSA and MgSO4. Cerebella were finely chopped and digested with a trypsin/Krebs-Ringer solution. Cells were then dispersed by trituration in Krebs-Ringer containing DNase, MgSO4 and trypsin inhibitor followed by plating at a density of 1x10^6 cells/well in poly-1-lysine coated plate in MEM/10% fetal bovine serum/KCl/glutamine/gentamicin. Media was replaced at 24 hours and cytosine arabinoside added. Experiments were conducted with cells 8-10 days in vitro.
For oxidation studies the media was removed and replaced with Na^+ free Locke's solution (154.6 mM N-methyl-D-glucamine, 5.6 mM KCl, 2.3 mM CaCl2, 1 mM MgCl2, 3.6 mM NaHCO3, and 5 mM HEPES, pH 7.3) with the omission of glucose. The nitrones were added in either Locke's solution or in 20% β-cyclodextrins and allowed to incorporate into the cells for 30 min. At this time 20 µl of a 5 mM stock solution of ferrous chloride was added for a final concentration of 100 µM. After 45 min the media was removed and added to 1.5 ml of TBA/TCA (2:1) with 25 µl of 2% BHT and TBARS determined as described above. The absorbance of the control cells (no iron) was subtracted from the iron treated cells and this value taken as the denominator to determine the concentration of nitrone required to inhibit oxidation by 50%.
Fresh MEM media was added to the cells along with 100 µl of MTT. After 4 hrs, 1 ml of cold isopropanol/0.04 N HCl was added, the cells scraped, mixed well and transferred to 13 x 100 mm glass test tubes. The absorbance resulting from mitochondrial reduction of the MTT (570 nm minus 630 nm) was measured as an assessment of viability. The % cell death was determined by comparison to the absorbance of cells to which no iron was added. The difference between the iron-treated and control cells was taken as 100% and the concentration of nitrone to prevent the loss of MTT reduction capability (expressed in Table II as viability) by 50% was used as the IC50.

[2] = Hydroxyl radical trapping (inhibition of the •OH-dependent bleaching of p-NDA); format: biochemical; conditions: IC50 for hydroxyl radical trapping in vitro
Description: Cyclic nitrones were evaluated for •OH trapping activity by a variety of tests. The primary assay was dependent upon the ability of the compounds to inhibit the •OH-dependent bleaching of p-NDA. Bors, W., Michel, C., and Saran, M. (1979) J. Biochem. 95, 621-627. The p-NDA was prepared at 1 mM in 50 mM NaCl, pH 7.0. The hydroxyl radical was generated using Fenton chemistry (Fe^2+/H2O2). FeCl2 is dissolved in N2 purged, double distilled H2O to a final concentration of 2.5 mM. H2O2 was prepared from a 30% stock solution (8.8 M) at 1.25 mM in the buffer. Test compounds were solubilized in buffer or ethanol at a concentration of 1 M or 5 M, depending upon solubility.
Assay mixtures in glass cuvettes contained solutions of 0.02 ml of H2O2, 0.02 ml of test compound, 0.10 ml of p-NDA and 50 mM NaCl, pH 7.0 to a final volume of 0.98 ml. The oxidation was initiated by the addition of 0.02 ml of Fe^2+ and the bleaching of p-NDA was monitored as the loss in absorbance at 440 nm for 100 sec. To generate concentration curves, serial dilutions of the test compounds were made such that a constant volume of 0.02 ml was added to the reaction mixture. Ethanol itself is an •OH trap, thus controls contained an equal volume of ethanol for any test compound requiring this vehicle. […]

[3] = Sedation after administration in rats; conditions: high doses in rats
[4] = 0.75 h, 45 min, TBARS in media, read-out: TBARS IC50
[5] = IC50 for preventing loss of MTT reduction capability, read-out: Viability

| SMILES | IC50 [1, 4] [µM] | IC50 [1, 5] [µM] | OH RADICAL TRAPPING [2] | sedation [3] |
| --- | --- | --- | --- | --- |
| CC1(C)Cc2ccc3ccccc3c2C=[N+]1[O-] [Compound 10, 3,3-Dimethyl-3,4-dihydrobenzo[h]isoquinoline N-oxide] | 104 | 103 |  |  |
| CC1(C)Cc2sccc2C=[N+]1[O-] [Compound 18, 6,6-Dimethyl-6,7-dihydrothieno[3,2-c]pyridine N-oxide] | 2600 | 880 |  |  |
| CC1(C)Cc2ccoc2C=[N+]1[O-] [Compound 23, 5,5-Dimethyl-4,5-dihydrofuro[2,3-c]pyridine N-oxide] |  |  | no effect at 20 mM |  |
| CC1(C)Cc2ccccc2C=[N+]1[O-] [Compound A, 3,4-dihydro-3,3-dimethylisoquinoline N-oxide, reference compound] | 307 | 292 |  | causes sedation |
